# Conditions: UPLC quantification of cordycepin; variable mass ratios; FIG. 2
smiles,measurement,value
"Nc1ncnc2c1ncn2[C@@H]1O[C@H](CO)C[C@H]1O [Cordycepin, 3′-deoxyadenosine]","solubility of Cordycepin in Cordyceps extract, TPGS solution vs pure water",did not increase the solubility

# From patent US20230398234A1, “NOVEL FUNGAL COMPOIND FORMULATIONS AND THEIR THERAPEUTIC METHODS OF USE” (priority 2020, published 2023)
